Source: patent publication US20220324865A1 (Bayer Aktiengesellschaft, priority 2018, published 2022)
Counter-ions that a name gives are not always drawn.

Biological target: T1, human EP3 receptor (Homo sapiens, UniProt P43115)
T1 construct: expressed in transfected cells; host or cells: CHO K1 (Chinese Hamster Ovary), stably co-transfected with Galpha16 and mitochondrial clytin
T1 sequence (P43115 1-390): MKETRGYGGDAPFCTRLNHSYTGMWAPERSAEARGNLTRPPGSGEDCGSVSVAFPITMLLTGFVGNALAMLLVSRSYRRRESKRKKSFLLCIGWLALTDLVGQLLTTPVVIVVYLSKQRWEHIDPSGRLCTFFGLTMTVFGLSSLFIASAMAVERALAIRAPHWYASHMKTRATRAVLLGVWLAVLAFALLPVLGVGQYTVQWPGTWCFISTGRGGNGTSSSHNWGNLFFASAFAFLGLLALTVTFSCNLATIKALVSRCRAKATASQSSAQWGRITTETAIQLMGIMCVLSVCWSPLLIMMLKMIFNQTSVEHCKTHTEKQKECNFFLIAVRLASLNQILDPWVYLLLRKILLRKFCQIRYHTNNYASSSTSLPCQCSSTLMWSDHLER
Test: Cellular in vitro assay for determining EP3 receptor activity (human EP3 cell line, sulprostone-stimulated calcium luminescence)
Type: cell-based
Details: CHO cells expressing human EP3 and mitochondrial Clytin; antagonist mode, sulprostone at EC50; read-out: EP3 CHO mtCLY ANTAG IC50
Procedure, shortened: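 Antagonist activity was measured as inhibition of the luminescent calcium signal elicited by EC50 sulprostone, following 10 min compound pretreatment. The cell line was recombinant CHO K1 co-expressing human EP3, Gα16 and the photoprotein Clytin, reconstituted with coelenterazine.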

Compound | IC50
Cc1cc(-c2cn3nc(C(=O)N[C@H](CN4CCOCC4)c4ccc(F)cc4)c(C4CC4)c3c(=O)[nH]2)ccc1Cl [6-337] | 1.5 nM
Cc1ccc(-c2cn3nc(C(=O)NC(C)(C)C4CC4)c(C4CC4)c3c(=O)[nH]2)cc1Cl [6-280] | 1.5 nM
CC[C@@H](C)NC(=O)c1nn2cc(-c3ccc(C(F)(F)F)c(C)c3)[nH]c(=O)c2c1C1CC1 [Example 1-138, N-[(2R)-Butan-2-yl]-3-cyclopropyl-6-[3-methyl-4-(trifluoromethyl)phenyl]-4-oxo-4,5-dihydropyrazolo[1,5-a]pyrazine-2-carboxamide] | 6.85 nM
COc1ccc(C2(NC(=O)c3nn4cc(-c5ccc6c(c5)OCCO6)[nH]c(=O)c4c3C3CC3)CN(C)C2)cc1 [6-464] | 3.6 nM
CCN1CC(NC(=O)c2nn3cc(-c4ccc(C)c(C)c4)[nH]c(=O)c3c2C(F)(F)F)(c2ccc(F)cc2)C1 [Example 1-176, 6-(3,4-Dimethylphenyl)-N-[1-ethyl-3-(4-fluorophenyl)azetidin-3-yl]-4-oxo-3-(trifluoromethyl)-4,5-dihydropyrazolo[1,5-a]pyrazine-2-carboxamide] | 1.67 nM
COc1ccc(C(C)NC(=O)c2cc3c(=O)[nH]c(-c4ccc(C)c(C)c4)cn3n2)cn1 (centres unmarked) [Example 5-4, 6-(3,4-Dimethylphenyl)-N-[1-(6-methoxypyridin-3-yl)ethyl]-4-oxo-4,5-dihydropyrazolo[1,5-a]pyrazine-2-carboxamide] | 2.5 nM
Cc1cc(-c2cn3nc(C(=O)N[C@@H](C)C4CC4)c(C4CC(F)(F)C4)c3c(=O)[nH]2)ccc1Cl [6-558] | 1.15 nM
Cc1ccc(-c2cn3nc(C(=O)N[C@@H](c4ccc(F)cc4)C(C)(C)O)c(C)c3c(=O)[nH]2)c(F)c1F [Example 1-163, 6-(2,3-Difluoro-4-methylphenyl)-N-[(1S)-1-(4-fluorophenyl)-2-hydroxy-2-methylpropyl]-3-methyl-4-oxo-4,5-dihydropyrazolo[1,5-a]pyrazine-2-carboxamide] | 7.8 nM
Cc1ccc(-c2cn3nc(C(=O)NCC(O)C(F)(F)F)c(C4CC4)c3c(=O)[nH]2)cc1C(F)(F)F (single isomer, unassigned) [6-244] | 5.55 nM
Cc1ccc(-c2[nH]c(=O)c3c(C(F)(F)F)c(C(=O)N[C@H](CCO)c4ccc(F)cc4)nn3c2C)cc1C [Example 1-122, 6-(3,4-Dimethylphenyl)-N-[(1R)-1-(4-fluorophenyl)-3-hydroxpropyl]-7-methyl-4-oxo-3-(trifluoromethyl)-4,5-dihydropyrazolo[1,5-a]pyrazine-2-carboxamide] | 4.13 nM
Cc1cc(CNC(=O)c2nn3c(C)c(-c4ccc5ccccc5c4)[nH]c(=O)c3c2C)on1 [Example 3-15, 3,7-Dimethyl-N-[(3-methyl-1,2-oxazol-5-yl)methyl]-6-(naphthalen-2-yl)-4-oxo-4,5-dihydropyrazolo[1,5-a]pyrazine-2-carboxamide] | 9.55 nM
O=C(NC1(c2ccc(F)cc2)CNC1)c1nn2cc(-c3ccc4ccccc4c3)[nH]c(=O)c2c1C(F)(F)F [Example 1-125, N-[3-(4-Fluorophenyflazetidin-3-yl]-6-(naphthalen-2-yl)-4-oxo-3-(trifluoromethyl)-4,5-dihydropyrazolo[1,5-a]pyrazine-2-carboxamide hydrochloride] | 3.35 nM
COc1ccc2c(c1)OC(C)(C)CC2NC(=O)c1nn2cc(-c3cnc4cccc(C)c4c3)[nH]c(=O)c2c1C(C)C (centres unmarked) [Example 4-79, 3-Isopropyl-N-(7-methoxy-2,2-dimethyl-3,4-dihydro-2-chromen-4-yl)-6-(5-methylquinolin-3-yl)-4-oxo-4,5-dihydropyrazolo[1,5-a]pyrazine-2-carboxamide] | 7.6 nM
CN(C)CC(NC(=O)c1nn2cc(-c3ccc4ccccc4c3)[nH]c(=O)c2c1C(F)(F)F)c1ccc(F)cc1 (racemic) [6-506] | 5.45 nM
Cc1c(C(=O)NC2(c3ccccc3)CCOCC2)nn2c(C)c(-c3ccc4ccccc4c3)[nH]c(=O)c12 [Example 3-34, 3,7-Dimethyl-6-(2-naphthyl)-4-oxo-N-(4-phenyltetrahydro-2H-pyran-4-yl)-4,5-dihydropyrazolo[1,5-a]pyrazine-2-carboxamide] | 6.05 nM
Cc1c(C(=O)N[C@@H](C)c2cnccn2)nn2c(C)c(-c3ccc4ccccc4c3)[nH]c(=O)c12 [Example 3-66, 3,7-Dimethyl-6-(naphthalen-2-yl)-4-oxo-N-[(7S)-1-(pyrazin-2-yl)ethyl]-4,5-dihydropyrazolo[1,5-a]pyrazine-2-carboxamide] | 7.45 nM
CN(C)CC(NC(=O)c1cc2c(=O)[nH]c(-c3ccc4ccccc4c3)cn2n1)c1ccccc1 (racemic) [Example 1-4, rac-N-[2-(Dimethylamino)-1-phenylethyl]-6-(naphthalen-2-yl)-4-oxo-4,5-dihydropyrazolo[1,5-a]-pyrazine-2-carboxamide] | 4.36 nM
O=C(NC(c1ccc(F)cc1)C1(O)CC1)c1nn2cc(-c3ccc(Cl)c(Cl)c3)[nH]c(=O)c2c1C1CC1 (single isomer, unassigned) [6-424] | 0.68 nM
O=C(N[C@H](CO)c1ccccc1)c1nn2cc(-c3ccc4ccccc4c3)[nH]c(=O)c2c1C(F)(F)F [Example 1-77, N-[(1S)-2-Hydroxy-1-phenylethyl]-6-(naphthalen-2-yl)-4-oxo-3-(trifluoromethyl)-4,5-dihydropyrazolo[1,5-a]pyrazine-2-carboxamide] | 1.18 nM

Compound | IC50
Cc1cc(-c2cn3nc(C(=O)N[C@@H](C)C4CC4)c(C4CC4)c3c(=O)[nH]2)ccc1Cl [6-296] | 1.6 nM
O=C(N[C@@H](c1ccc(F)cc1)C(F)(F)CO)c1nn2cc(-c3ccc(Cl)c(Cl)c3)[nH]c(=O)c2c1C1CC1 [6-421] | 1.49 nM
Cc1ccc([C@@H](C)NC(=O)c2nn3cc(-c4cnc5cccc(C)c5c4)[nH]c(=O)c3c2C(C)C)cc1 [Example 4-55, N-[(1R)-1-(4-Methylphenyl)ethyl]-6-(5-methylquinolin-3-yl)-4-oxo-3-(propan-2-yl)-4,5-dihydropyrazolo[1,5-a]pyrazine-2-carboxamide] | 2.75 nM
Cc1cccc2ncc(-c3cn4nc(C(=O)NC(CN5CCCC5)c5ccccc5)c(C(C)C)c4c(=O)[nH]3)cc12 (centres unmarked) [Example 4-63, 3-Isopropyl-6-(5-methylquinolin-3-yl)-4-oxo-N-[1-phenyl-2-(pyrrolidin-1-yl)ethyl]-4,5-dihydropyrazolo[1,5-a]pyrazine-2-carboxamide] | 9.45 nM
CC[C@@H](C)NC(=O)c1nn2cc(-c3ccc(C)c(Cl)c3)[nH]c(=O)c2c1C1CC1 [6-271] | 0.87 nM
O=C(NCCN(CC(F)F)C1CC1)c1nn2cc(-c3ccc4ccccc4c3)[nH]c(=O)c2c1C(F)(F)F [6-527] | 3.37 nM
Cc1ccc(-c2cn3nc(C(=O)NCc4ncc(C(F)(F)F)cc4Cl)cc3c(=O)[nH]2)cc1C [6-9] | 5.75 nM
Cc1c(C(=O)NC(C)c2cccnc2)nn2c(C)c(-c3ccc4ccccc4c3)[nH]c(=O)c12 (centres unmarked) [Example 3-73, 3,7-Dimethyl-6-(2-naphthyl)-4-oxo-N-[1-(3-pyridyl)ethyl]-5H-pyrazolo[1,5-a]pyrazine-2-carboxamide] | 2.7 nM
COc1ccc(C2(NC(=O)c3cc4c(=O)[nH]c(-c5ccc(C)c(C)c5)cn4n3)CN(C(=O)OC(C)(C)C)C2)cc1 [Example 1-64, tert.-Butyl 3-({[6-(3,4-dimethylphenyl)-4-oxo-4,5-dihydropyrazolo[1,5-a]pyrazin-2-yl]carbonyl}-amino)-3-(4-methoxyphenyl)azetidine-1-carboxylate] | 4.55 nM
COc1ccc([C@@H](C)NC(=O)c2nn3cc(-c4ccc(Cl)c(F)c4)[nH]c(=O)c3c2C2CC2)cn1 [6-87] | 0.93 nM
CC(C)c1c(C(=O)N[C@H](CCO)c2ccc(F)cc2)nn2cc(-c3ccc(Cl)cc3)[nH]c(=O)c12 [6-670] | 2 nM
CN1CC(NC(=O)c2nn3cc(-c4ccc(Cl)cc4)[nH]c(=O)c3c2C2CC2)(c2ccc(F)cc2)C1 [6-673] | 3.3 nM
Cc1ccc([C@@H](C)NC(=O)c2nn3c(C)c(-c4ccc5ccccc5c4)[nH]c(=O)c3c2C)cc1 [Example 3-19, 3,7-Dimethyl-N-[(7R)-1-(4-methylphenyl)ethyl]-6-(naphthalen-2-yl)-4-oxo-4,5-dihydropyrazolo[1,5-a]pyrazine-2-carboxamide] | 1.55 nM
CC(NC(=O)c1nn2cc(-c3ccc4ccccc4c3)[nH]c(=O)c2c1C(F)(F)F)c1ccc(OCC(F)(F)F)cn1 (centres unmarked) [Example 1-30, 6-(2-Naphthyl)-4-oxo-N-[1-[5-(2,2,2-trifluoroethoxy)-2-pyridyl]ethyl]-3-(trifluoromethyl)-5H-pyrazolo[1,5-a]pyrazine-2-carboxamide trifluoroacetic acid salt] | 4.05 nM
CC(C)(O)[C@@H](NC(=O)c1nn2cc(-c3ccc(C(F)(F)F)c(Cl)c3)[nH]c(=O)c2c1C1CC1)c1ccc(F)cc1 [6-598] | 2.35 nM
Cc1ccc(-c2cn3nc(C(=O)NC4(c5ccc(F)cc5)CN(C5CC5)C4)c(C(F)(F)F)c3c(=O)[nH]2)cc1Cl [6-203] | 1.5 nM
Cc1ccc(-c2cn3nc(C(=O)NC(C)C4CCC4)c(C4CC4)c3c(=O)[nH]2)cc1Cl (centres unmarked) [6-279] | 0.49 nM
Cc1ccc(-c2cn3nc(C(=O)N[C@@H](c4ccc(F)cc4)C(F)(F)CO)c(C(F)(F)F)c3c(=O)[nH]2)cc1Cl [6-157] | 0.92 nM
CC(NC(=O)c1cc2c(=O)[nH]c(-c3ccc4ccccc4c3)cn2n1)c1ccc(F)cc1 (centres unmarked) [6-19] | 3.1 nM
